The source of these data is paper PMC7555427, “Discovery of Icotinib-1,2,3-Triazole Derivatives as IDO1 Inhibitors” (Frontiers in Pharmacology, 2020).

For one assay, the target named is T1, IDO1 (Homo sapiens, UniProt P14902).
T1 construct: host or cells: HeLa cells, IDO1 induced with 100 ng/ml human IFN-γ
The assay can be described thus: Hela cell-based IDO1 functional assay (kynurenine readout, IFN-γ induced). The settings on record: Hela cells, 100 ng/ml human IFN-γ, 18 h; Table 1 and text. The procedure:
To perform the Hela cell based IDO1 assay, Hela cells were seeded at 50,000 cells per well into 96-well microplate in 100 μl of DMEM 10% fetal bovine serum 1% Penicillin-Streptomycin. Cells were incubated at 37°C and 5% CO2 overnight.
The next day 100 μl per well of diluted inhibitor in growth medium was added at a final concentration of 100 ng/ml human IFN-γ. Cells were incubated at 37°C in a CO2 incubator for 18 h. The next day 140 μl of medium was moved into a new 96-well plate and 20 μl of 3.05 N trichloroacetic acid (TCA) was added. The plate was incubated at 50°C for 30 min to hydrolyze N-formylkynurenine. The plate was then centrifuged at 2,500 rpm for 10 min to remove sediments. 100 μl of supernatant per well was transferred to another 96-well plate and mixed with 100 μl of 2% (w/v) 4-(Dimethylamino)benzaldehyde in acetic acid. The plate was incubated at room temperature for 10 min, the yellow color derived from kynurenine was recorded by measuring absorbance at 480 nm using a microplate reader (PerkinElmer, USA).
To investigate the IDO1 inhibition activities of the synthesized derivatives, all the new compounds and icotinib were screened via Hela cell-based functional assay using methods described in the literature ([Yue et al., 2009]; [Malachowski et al., 2016]; [Qian et al., 2016]).

Assay [1] deals with Human renal epithelial cell (293T). The assay can be described thus: Cytotoxicity assay, Cell Counting Kit-8 (CCK8), 72 h. Type of assay: cell-based. The settings on record: HEK-293T, 293T cells, CCK-8, 72 h. As to the method:
Cytotoxity of the chosen compounds was evaluated by the Cell Counting Kit-8 (CCK8, DOJINDO, Japan) assay. The cells were seeded at a density of 2,000 cells per well into 96-well microplate in 100 μl of growth medium. Cells were incubated at 37°C and 5% CO2 overnight. The next day, 100 μl per well of diluted inhibitor in growth medium was added with the final concentration from 0.1nM to 100 μM. The cells were treated with DMSO as control. A series of dilutions were made in 0.1% DMSO in assay medium so that the final concentration of DMSO was 0.1% in all the treatments. Cells were incubated at 37°C and 5% CO2 for 72 h. Then, 10 μl of CCK8 was added to each well. The plates were incubated at 37°C for 2 h, and the plates were recorded by measuring the absorbance at 450 nm with the reference wavelength of 630 nm using an EnVisionMultilabel Reader (PerkinElmer). The IC50 values were calculated and determined by the concentration causing a half-maximal percent activity. All assays were conducted with three parallel samples and three repetitions.
Next, several compounds with submicromolar level of IDO1 inhibitory activities were chosen for further study. Human renal epithelial cell (293T) was chosen for CCK-8 assay to evaluation the bioactivity of these compounds.
A general note: Tetrazolium dyes change colour on reduction, which living cells bring about.

Bounds are passed on as bounds.

T1 sequence (P14902 whole entry): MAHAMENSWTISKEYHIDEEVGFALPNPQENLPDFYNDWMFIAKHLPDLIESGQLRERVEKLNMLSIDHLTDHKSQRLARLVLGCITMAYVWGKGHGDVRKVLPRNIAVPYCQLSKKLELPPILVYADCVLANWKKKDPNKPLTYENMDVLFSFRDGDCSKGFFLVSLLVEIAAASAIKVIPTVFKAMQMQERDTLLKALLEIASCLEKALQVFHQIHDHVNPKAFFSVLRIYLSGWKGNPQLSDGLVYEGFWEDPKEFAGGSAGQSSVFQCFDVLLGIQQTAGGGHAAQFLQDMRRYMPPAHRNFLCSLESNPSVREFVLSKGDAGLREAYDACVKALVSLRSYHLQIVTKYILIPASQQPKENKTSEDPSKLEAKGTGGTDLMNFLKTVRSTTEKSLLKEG

`Fc1cccc(-n2cc(-c3cccc(Nc4ncnc5cc6c(cc45)OCCOCCOCCO6)c3)nn2)c1` [a1, {3-[1-(3-Fluoro-phenyl)-1H-[1,2,3]triazol-4-yl]-phenyl}-(7,8,10,11,13,14-hexahydro-6,9,12,15-tetraoxa-1,3-diaza-cyclododeca[b]naphthalen-4-yl)-amine]: the IC50 – broadly, the midpoint of a concentration-inhibition curve – against IDO1 is 4.25 ± 0.08 µM. Same read-out and setting: for `Clc1ccc(-n2cc(-c3cccc(Nc4ncnc5cc6c(cc45)OCCOCCOCCO6)c3)nn2)cc1` [a2, {3-[1-(4-Chloro-phenyl)-1H-[1,2,3]triazol-4-yl]-phenyl}-(7,8,10,11,13,14-hexahydro-6,9,12,15-tetraoxa-1,3-diaza-cyclododeca[b]naphthalen-4-yl)-amine] the value was 2.9 ± 0.37 µM; for `Fc1ccc(-n2cc(-c3cccc(Nc4ncnc5cc6c(cc45)OCCOCCOCCO6)c3)nn2)cc1` [a3, {3-[1-(4-Fluoro-phenyl)-1H-[1,2,3]triazol-4-yl]-phenyl}-(7,8,10,11,13,14-hexahydro-6,9,12,15-tetraoxa-1,3-diaza-cyclododeca[b]naphthalen-4-yl)-amine], 18.2 ± 1.47 µM.

As to `COc1ccccc1-n1cc(-c2cccc(Nc3ncnc4cc5c(cc34)OCCOCCOCCO5)c2)nn1` [a4, (7,8,10,11,13,14-Hexahydro-6,9,12,15-tetraoxa-1,3-diaza-cyclododeca[b]naphthalen-4-yl)-{3-[1-(2-methoxy-phenyl)-1H-[1,2,3]triazol-4-yl]-phenyl}-amine], the IC50 against IDO1 came out at 1.32 ± 0.17 µM.

For the compound `Clc1ccccc1-n1cc(-c2cccc(Nc3ncnc4cc5c(cc34)OCCOCCOCCO5)c2)nn1` [a5, {3-[1-(2-Chloro-phenyl)-1H-[1,2,3]triazol-4-yl]-phenyl}-(7,8,10,11,13,14-hexahydro-6,9,12,15-tetraoxa-1,3-diaza-cyclododeca[b]naphthalen-4-yl)-amine], the IC50 against IDO1 is 4.88 ± 0.42 µM. With `c1ccc(-n2cc(-c3cccc(Nc4ncnc5cc6c(cc45)OCCOCCOCCO6)c3)nn2)cc1` [a6, (7,8,10,11,13,14-Hexahydro-6,9,12,15-tetraoxa-1,3-diaza-cyclododeca[b]naphthalen-4-yl)-[3-(1-phenyl-1H-[1,2,3]triazol-4-yl)-phenyl]-amine], the figures for the IC50 (in assay [1]; against IDO1) were 42.8 ± 11.8 µM and 0.77 ± 0.13 µM, respectively.

With `Clc1cccc(-n2cc(-c3cccc(Nc4ncnc5cc6c(cc45)OCCOCCOCCO6)c3)nn2)c1` [a7, {3-[1-(3-Chloro-phenyl)-1H-[1,2,3]triazol-4-yl]-phenyl}-(7,8,10,11,13,14-hexahydro-6,9,12,15-tetraoxa-1,3-diaza-cyclododeca[b]naphthalen-4-yl)-amine], the IC50 in assay [1] is 3.1 ± 0.2 µM; at IDO1 it was 2.82 ± 0.26 µM. At IDO1, `Ic1ccccc1-n1cc(-c2cccc(Nc3ncnc4cc5c(cc34)OCCOCCOCCO5)c2)nn1` [a8, (7,8,10,11,13,14-Hexahydro-6,9,12,15-tetraoxa-1,3-diaza-cyclododeca[b]naphthalen-4-yl)-{3-[1-(2-iodo-phenyl)-1H-[1,2,3]triazol-4-yl]-phenyl}-amine] yielded an IC50 of 2.5 ± 0.43 µM. Regarding `COc1cccc(-n2cc(-c3cccc(Nc4ncnc5cc6c(cc45)OCCOCCOCCO6)c3)nn2)c1` [a9, (7,8,10,11,13,14-Hexahydro-6,9,12,15-tetraoxa-1,3-diaza-cyclododeca[b]naphthalen-4-yl)-{3-[1-(3-methoxy-phenyl)-1H-[1,2,3]triazol-4-yl]-phenyl}-amine], on IDO1, the IC50 worked out at 1.41 ± 0.08 µM. The same measure, in the same setting: under `Brc1ccc(-n2cc(-c3cccc(Nc4ncnc5cc6c(cc45)OCCOCCOCCO6)c3)nn2)cc1` [a10, {3-[1-(4-Bromo-phenyl)-1H-[1,2,3]triazol-4-yl]-phenyl}-(7,8,10,11,13,14-hexahydro-6,9,12,15-tetraoxa-1,3-diaza-cyclododeca[b]naphthalen-4-yl)-amine] stands 2.79 ± 0.46 µM; under `Brc1ccccc1-n1cc(-c2cccc(Nc3ncnc4cc5c(cc34)OCCOCCOCCO5)c2)nn1` [a11, {3-[1-(2-Bromo-phenyl)-1H-[1,2,3]triazol-4-yl]-phenyl}-(7,8,10,11,13,14-hexahydro-6,9,12,15-tetraoxa-1,3-diaza-cyclododeca[b]naphthalen-4-yl)-amine], 1 ± 0.49 µM.

As for `FC(F)(F)c1ccc(-n2cc(-c3cccc(Nc4ncnc5cc6c(cc45)OCCOCCOCCO6)c3)nn2)cc1` [a12, (7,8,10,11,13,14-Hexahydro-6,9,12,15-tetraoxa-1,3-diaza-cyclododeca[b]naphthalen-4-yl)-{3-[1-(4-trifluoromethyl-phenyl)-1H-[1,2,3]triazol-4-yl]-phenyl}-amine], the half-inhibitory concentration (IC50) at IDO1 was greater than 100 µM.

At IDO1, `Fc1ccccc1Cn1cc(-c2cccc(Nc3ncnc4cc5c(cc34)OCCOCCOCCO5)c2)nn1` [a13, {3-[1-(2-Fluoro-benzyl)-1H-[1,2,3]triazol-4-yl]-phenyl}-(7,8,10,11,13,14-hexahydro-6,9,12,15-tetraoxa-1,3-diaza-cyclododeca[b]naphthalen-4-yl)-amine] returned an IC50 of 4.62 ± 0.19 µM. In the case of `Cc1ccccc1Cn1cc(-c2cccc(Nc3ncnc4cc5c(cc34)OCCOCCOCCO5)c2)nn1` [a14, (7,8,10,11,13,14-Hexahydro-6,9,12,15-tetraoxa-1,3-diaza-cyclododeca[b]naphthalen-4-yl)-{3-[1-(2-methyl-benzyl)-1H-[1,2,3]triazol-4-yl]-phenyl}-amine], the IC50 was 3.35 ± 0.89 µM in assay [1] and 0.79 ± 0.21 µM at IDO1. The matching figures for `Cc1ccc(Cn2cc(-c3cccc(Nc4ncnc5cc6c(cc45)OCCOCCOCCO6)c3)nn2)cc1` [a15, (7,8,10,11,13,14-Hexahydro-6,9,12,15-tetraoxa-1,3-diaza-cyclododeca[b]naphthalen-4-yl)-{3-[1-(4-methyl-benzyl)-1H-[1,2,3]triazol-4-yl]-phenyl}-amine]: 0.16 ± 0.05 µM and 0.59 ± 0.05 µM. Compound `Ic1ccccc1Cn1cc(-c2cccc(Nc3ncnc4cc5c(cc34)OCCOCCOCCO5)c2)nn1` [a16, (7,8,10,11,13,14-Hexahydro-6,9,12,15-tetraoxa-1,3-diaza-cyclododeca[b]naphthalen-4-yl)-{3-[1-(2-iodo-benzyl)-1H-[1,2,3]triazol-4-yl]-phenyl}-amine] came in with a half-maximal inhibitory concentration (IC50) at IDO1 of 1.51 ± 0.11 µM. For the compound `Brc1cccc(Cn2cc(-c3cccc(Nc4ncnc5cc6c(cc45)OCCOCCOCCO6)c3)nn2)c1` [a17, {3-[1-(3-Bromo-benzyl)-1H-[1,2,3]triazol-4-yl]-phenyl}-(7,8,10,11,13,14-hexahydro-6,9,12,15-tetraoxa-1,3-diaza-cyclododeca[b]naphthalen-4-yl)-amine], the IC50 was 3.1 ± 0.2 µM in assay [1] and 0.37 ± 0.02 µM on IDO1.

For `c1ccc(Cn2cc(-c3cccc(Nc4ncnc5cc6c(cc45)OCCOCCOCCO6)c3)nn2)cc1` [a18, [3-(1-Benzyl-1H-[1,2,3]triazol-4-yl)-phenyl]-(7,8,10,11,13,14-hexahydro-6,9,12,15-tetraoxa-1,3-diaza-cyclododeca[b]naphthalen-4-yl)-amine], the IC50 in assay [1] turned out to be 3.08 ± 0.59 µM; against IDO1, 0.56 ± 0.16 µM.

`Brc1ccccc1Cn1cc(-c2cccc(Nc3ncnc4cc5c(cc34)OCCOCCOCCO5)c2)nn1` [a19, {3-[1-(2-Bromo-benzyl)-1H-[1,2,3]triazol-4-yl]-phenyl}-(7,8,10,11,13,14-hexahydro-6,9,12,15-tetraoxa-1,3-diaza-cyclododeca[b]naphthalen-4-yl)-amine]: the IC50 against IDO1 stood at 1.5 ± 0.45 µM. As for `COc1cccc(Cn2cc(-c3cccc(Nc4ncnc5cc6c(cc45)OCCOCCOCCO6)c3)nn2)c1` [a20, (7,8,10,11,13,14-Hexahydro-6,9,12,15-tetraoxa-1,3-diaza-cyclododeca[b]naphthalen-4-yl)-{3-[1-(3-methoxy-benzyl)-1H-[1,2,3]triazol-4-yl]-phenyl}-amine], the IC50 in assay [1] came out at 3.3 ± 1.3 µM; on IDO1, 0.76 ± 0.07 µM. For `Brc1cc(Br)cc(Cn2cc(-c3cccc(Nc4ncnc5cc6c(cc45)OCCOCCOCCO6)c3)nn2)c1` [a21, {3-[1-(3,5-Dibromo-benzyl)-1H-[1,2,3]triazol-4-yl]-phenyl}-(7,8,10,11,13,14-hexahydro-6,9,12,15-tetraoxa-1,3-diaza-cyclododeca[b]naphthalen-4-yl)-amine], in that order: 0.74 ± 0.15 µM and 0.68 ± 0.44 µM. Take `C#Cc1cccc(Nc2ncnc3cc4c(cc23)OCCOCCOCCO4)c1` [icotinib]: half-maximal inhibition against IDO1 (IC50) required 2.57 ± 0.44 µM.
